Reference: patent US20030166004A1, “Endothelial-cell binding peptides for diagnosis and therapy” (priority 2001, published 2003)
Where two headings read alike, the source gives them in different places. Ends that are not written are not given here. * marks the point of attachment. Biotin = O=C1N[C@H]2[C@H](CS[C@H]2CCCCC(=O)*)N1

Experiments:
[1] = tested on: aortic smooth muscle cells (AoSMC)
Source text: (§1) We developed a cell-based saturation ligand binding assay to measure the specific binding of the isolated EC binding peptides to human microvascular endothelial cells (HMVEC) and aortic smooth muscle cells (AoSMC). This assay allows the determination of the relative binding affinities of the isolated EC binding peptides. The assay is based on the highly sensitive fluorescence enhancement technique DELFIA® and coated microtitration plates. In this assay the synthetic peptides labeled with biotin at their amino terminus are incubated with fixed target cells in microtiter plate format. After incubation, the excess, unbound peptides are removed and europium labeled streptavidin added to the plates. After the removal of excess streptavidin, the europium is released and its fluorescence is measured.
(§2) Saturation ligand binding experiments measure specific ligand binding at equilibrium at various concentrations of the ligand. Binding curves are analyzed to determine binding site or receptor number and affinity. This curve is known as a rectangular hyperbola, binding isotherm, or saturation binding curve. This curve is determined by the following equation: […]
(§3) Y is zero initially, and increases to a maximum plateau value, Bmax. This equation describes the equilibrium binding of a ligand to a receptor as a function of increasing ligand concentration. X is the concentration of the ligand, and Y is the specific binding. Kd is the equilibrium dissociation constant, expressed in the same units as the X-axis (concentration). When the drug concentration equals Kd, half the binding sites are occupied at equilibrium.
(§4) Streptavidin-Eu^3+ reagent (cat # 1244-105), reagent diluent (cat # 1244-111), and Enhancement Solution (cat # 1244-105) were purchased from Perkin Elmer-Wallac (Turku, Finland), and the plates were read on Wallac Victor counter. The binding constants were calculated using the method of nonlinear regression analysis with the Prizm software (GraphPad Software, Inc.).
(§5) The HMVEC (human microvascular endothelial cell) and aortic smooth muscle cells (AoSMC) cells were purchased from Clonetics (San Diego, Calif.) and maintained according to the specifications of the supplier. In these experiments the cultures were used from passages 5 and 6 only.
(§6) The cultured subconfluent cells were trypsinized and resuspended in the culture media according to Clonetics instructions. The diluted suspension was dispensed into a reagent reservoir with magnetic stirring bar. 50 μl of the cell suspension was dispensed into each well of the 96-well plate with the Multidrop while stirring the suspension. The seeding density was 5*10^3 cells/well. The plates are incubated at 37° C. in the atmosphere containing 5% CO2 for 48 hours.
(§7) The cells were then washed three times with TBS with 0.01%Tween20 (wash buffer) and fixed with 2% formalin solution for fifteen minutes at 20° C. The cells were subsequently washed three times with wash buffer. The nonspecific sites on the plates were blocked by 300 μl of Pierce Casein Blocker per well for two hours at 20° C.
(§8) The saturation binding assay was performed by adding 50μl of the biotinylated peptide per well at increasing concentrations. The concentration was ranging from 1 nM to 10 μM. All measurements were performed in triplicates. Peptide dilutions were prepared from 10 mM DMSO stocks in wash buffer. The plates were incubated for one hour at room temperature and subsequently washed five times with wash buffer using Titertek automatic plate washer to remove any unbound peptide. The biotinylated peptide bound to the cells was then allowed to react for thirty minutes with 50 μl of 2000× dilution of the streptavidin-Eu^3+ reagent, diluted in the Wallac reagent diluent. Finally, after washing the unbound streptavidin-Eu^3+ reagent, 50 μl of Wallac Enhancement Solution per well was added to release the free Eu^3+ from its chelate form. Free Eu^3+ rapidly forms a highly fluorescent stable chelate with the components of the Enhancement solution. […]

[2] = tested on: human microvascular endothelial cells (HMVEC); settings: Cell Type HMVEC; for Binding Affinity: equals Bmax/Kd; for Kd: fixed cells, biotinylated peptide 1 nM to 10 μM
Source text: as §1, §2, §3, §4, §5, §6, §7, §8

chicken aortic rings = assay: Aortic ring assay (chicken aortic rings in Matrigel, microvessel formation); type: cell-based; settings: peptide 125 to 1000 μM, 2-3 days
Source text: The aortic ring assay is a widely used in vitro assay for angiogenesis. Typically, rat aortas are sliced crosswise and placed in Matrigel. After three to five days, microvessel sprouting can be roughly quantified by manual counting or by using image analysis. The aortic ring assay is low-cost, easy to use, and offers many assays from a single animal. A relatively new variant uses embryonic chick aortic arches (see Muthukkaruppan et al., Proceedings of the American Association for Cancer Research Annual Meeting, 2000).
In this experiment, chicken aortic rings are embedded in Matrigel (BD BioCoat™ Matrigel™ or other equivalent products) in optimized MCDB-131 media (Sigma product number: M8537, or equivalent products from other vendors). From endothelial cells (EC) in the aortic intima, a complex network of branching and anastomosing microvessels develop interspersed with fibroblast as individual cells. In this assay the ability of the identified EC-binding peptides is tested for their abilities to inhibit EC branching and microvessel formation.
Chicken aortic branches were dissected and cleaned from 15 day old chicken embryos, and were then rinsed well in cold PBS+Penicillin/Streptomycin (P/S) buffers. The arteries were then cut into about 1 mm rings using sterile razor blade, and the resulting rings were mounted in 10-20 μl of Matrigel (in a 48-well plate). Subsequently, 300 μl of MCDB-131 basal media+P/S containing the indicated amount of test peptide were added. The cultured rings were incubated at 37° C., with 5% CO2 for 2-3 days, and the extent of microvessel formation were evaluated as the end of the experiment.

[3] = tested on: angiogenesis in Matrigel plug; assay: Mouse Matrigel plug assay (FGF-induced angiogenesis, hemoglobin content); type: in vivo; settings: for inhibition of angiogenesis in the Matrigel plug assay (in words) / inhibition of angiogenesis: mouse Matrigel plug with FGF; for inhibition of angiogenesis: peptide in the plug versus FGF-only control plug, hemoglobin levels
Protocol: This assay takes advantage of the fact that Matrigel is liquid at 4° C. but becomes gel when warmed to 37° C. Thus when injected subcutaneously into the ventral region of a mouse, Matrigel solidifies and forms a so-called “Matrigel plug”. When angiogenic factors, such as FGF, are mixed with the Matrigel and injected, endothelial cells migrate into the gel plug and form functional vessels. The level of angiogenesis can then be assessed by measuring hemoglobin levels in the plugs, which are directly proportional to the extent of angiogenesis. Typically, two plugs are assayed in each mouse: one plug (control plug) contains FGF only and is used as control for angiogenesis, while the test plug contains FGF and an indicated amount of test peptide(s). In single-point assays, peptide concentration in the plug is 1 mM.
C57BL/6 female mice, 6-8 wks.
Basis FGF (bFGF) stock was prepared at 25 μg/ml in saline buffer +5% mouse serum albumin. The bFGF stock was added to Matrigel at 200 ng/ml. The mixture was left on ice for at least 3 hours before further use. For each mouse, 1 ml of such mixture was prepared, so that 0.5 ml of the mixture can be injected into each mouse to achieve about 100 ng/one side injection. If a test peptide were also to be added, for each mouse, 50 μl of 10 mM peptide (or 5 mM cRGD, positive control) was slowly added to Matrigel, swirling while adding. Per 5 mice, add 300 μl of peptide per 3 mls of Matrigel.
Syringes for injection were left on ice before injection. One syringe is used for each side of the group of 5 mice. About 1 ml of the mixture can be loaded at a time and injected into 2 mice using the Becton Dickinson 1 ml syringe for subcutaneous injection (26 gauge, ⅝ths, cat# 309597). Mice were anesthetized with isofluorane in a chamber, and were pulled out just as their breathing became slow. Injection were performed subcutaneously at inner thighs of the mice.
To determined the degree of angiogenesis, Matrigel plugs were dissected out, and placed in pre-weighed Falcon 5 ml snap-cap round bottomed tubes (polypropylene, Falcon cat# 352063). One ml of PBS was then added. The tubes were weighed with Matrigel plugs inside. The samples were kept at 4° C. until ready for hemoglobin assay.
Sonicate samples before measuring the hemoglobin content using the Plasma hemoglobin kit from Sigma.

Substance | Bmax (counts/cell) ([1]; Cell Type AoSMC) | Binding Affinity ([1]; Cell Type AoSMC, equals Bmax/Kd) | Kd ([1]; Cell Type AoSMC, fixed cells, biotinylated peptide 1 nM to 10 μM) | Binding Affinity [1] | Bmax (counts/cell) [1] | binding to AoSMC (in words) [1] | Bmax (counts/cell) [2] | Binding Affinity [2] | Kd [2] | inhibition of angiogenesis (microvessel formation) in the aortic ring assay (in words) (chicken aortic rings) | inhibition of angiogenesis in the Matrigel plug assay (in words) [3] | Kd [1] | inhibition of angiogenesis [3] | binding to smooth muscle cells compared with endothelial cells [1] | dose dependence of inhibition of angiogenesis ([3]; mouse Matrigel plug, three concentrations, n no less than 9)
Biotin-CDCRGDCFC-OH (cysteine pairing not given here) [reference compound] | 7.18 counts/cell | 28.725 | 250 nM |  |  |  |  |  |  |  |  |  |  |  | 
Biotin-GCDSHKRLKCG (cysteine pairing not given here) [9-G5] |  |  |  | −2.127 | 2.937 counts/cell | do not bind | 10.1138 counts/cell | 19.195 | 527 nM | tested positive | tested positive |  |  |  | 
Biotin-GCHSSTWRACG (cysteine pairing not given here) [2-C10] |  |  |  | −5.709 | 0.9694 counts/cell | do not bind | 8.79 counts/cell | 3.83 | 2290 nM | tested positive | tested positive |  |  |  | 
Biotin-GCMNQHSSACG (cysteine pairing not given here) [3-B5] |  |  |  | 85.24 | 8.354 counts/cell |  | 3.817 counts/cell | 394.75 | 9.7 nM |  |  | 98 nM |  |  | 
Biotin-GCPTPHSGTCG (cysteine pairing not given here) [2-G9] |  |  |  | 57.639 | 8.519 counts/cell |  | 5.15 counts/cell | 166.12 | 31 nM | tested positive | tested positive | 148 nM | 57% |  | 
Biotin-GCTQMRTAYCG (cysteine pairing not given here) [7-D5] |  |  |  | 28.211 | 10.8332 counts/cell |  | 11.0211 counts/cell | 2.3116 | 4770 nM |  |  | 384 nM |  | binds better to smooth muscle cells than to endothelial cells | 
HTKQIPRHIYSA [1-H5] |  |  |  |  |  |  |  |  |  | tested positive | tested positive |  | 44% |  | linearly proportional to the concentration
cRGD [reference compound] |  |  |  |  |  |  |  |  |  |  |  |  | 36% |  | 
